The values below come from ChEMBL document CHEMBL1671825, “Synthesis and in Vitro and in Vivo Evaluation of Phosphoinositide-3-kinase Inhibitors” (ACS Med Chem Lett, 2011).

Type in all cases: ADME, organism-based
Data set [1] is described as follows: Oral bioavailability in rat at 20 mg/kg. The settings on record: in vivo.
A short description of data set [2]: AUC in rat at 20 mg/kg, po. Also noted: dose 20 mg/kg, route oral. The settings on record: plasma.
Data set [3] is described as follows: Volume of distribution at steady state in rat at 5 mg/kg, iv and 20 mg/kg, po. The settings on record: in vivo, read-out: Vdss.
The nature of data set [4]: Half life in rat at 5 mg/kg, iv. The arrangement: dose 5 mg/kg, route intravenous. The settings on record: in vivo.
Data set [5] in a line: Clearance in rat at 5 mg/kg, iv and 20 mg/kg, po. As to conditions: in vivo.
Data set [6] is described as follows: Half life in mouse at 10 mg/kg, po. Also noted: dose 10 mg/kg, route oral. As to conditions: in vivo.
The nature of data set [7]: Volume of distribution at steady state in mouse at 5 mg/kg, iv and 10 mg/kg, po. As to conditions: in vivo, read-out: Vdss.
Data set [8] in a line: AUC in mouse at 10 mg/kg, po. The settings on record: plasma. Also noted: dose 10 mg/kg, route oral.
The nature of data set [9]: Clearance in mouse at 5 mg/kg, iv and 10 mg/kg, po. The settings on record: in vivo.
Data set [10] in a line: Oral bioavailability in mouse at 10 mg/kg. As to conditions: in vivo.

As a reminder, the bioavailability is dose-corrected exposure relative to a reference, in per cent. Read a low bioavailability as poor availability. In general, AUC refers to the area under the concentration-time curve, a measure of exposure. One may read the half-life as the time in which the quantity being followed falls by half. A low value points to rapid decline.

In turn, `Oc1cccc(-c2cc(Nc3cnc4ccccc4c3)nc(N3CCOCC3)n2)c1` registered a bioavailability in data set [1] of 1%. This compound also registered an AUC in [2] of 0.03 µM·h. Also, the Vd in [3] turned out to be 6.9 L/kg. This compound also returned a half-life in [4] of 30 min. Also, in [5], the clearance worked out at 179 mL/min/kg.
For `c1cncc(-c2cc(Nc3cnc4ccccc4c3)nc(N3CCOCC3)n2)c1`, in that order: 46%, 16 µM·h, 2.4 L/kg, 55 min and 26 mL/min/kg.
In turn, `Nc1ccc(-c2cc(Nc3cnc4ccccc4c3)nc(N3CCOCC3)n2)cn1` came in with a bioavailability in [1] of 56%. Besides, the AUC in [2] worked out at 93 µM·h. In addition, in data set [3], the Vd was found to be 0.8 L/kg. In [4], this compound gave a half-life of 103 min. The compound further came in with a clearance in [5] of 5 mL/min/kg.
`Nc1ncc(-c2cc(Nc3cnc4ccccc4c3)nc(N3CCOCC3)n2)cn1`: the bioavailability in data set [1] amounted to 23%. The AUC in [2] worked out at 6 µM·h. The Vd in [3] was found to be 1.9 L/kg. The half-life in [4] is 43 min. Further, the clearance in data set [5] is 37 mL/min/kg.
In turn, `COc1ccc(Nc2cc(-c3cnc(N)nc3)nc(N3CCOCC3)n2)cn1` gave a half-life in data set [6] of 282 min. For the same compound, the Vd in data set [7] stood at 1.1 L/kg. Moreover, in data set [8], the exposure (AUC) worked out at 2 µM·h. For the same compound, the clearance in data set [9] was 99 mL/min/kg. The compound also gave a bioavailability in data set [10] of 87%.
